In patent publication US20100311714A1, “1H-IMIDAZO[4,5-c]QUINOLINONE COMPOUNDS” (priority 2009, published 2010):
Where two headings read alike, the source gives them in different places.

Molecular target: T1, PI3K alfa (Homo sapiens, UniProt P42336)
T1 construct: His tag (C); made in house; host or cells: baculovirus BV1075; Tn5 (Trichoplusia ni) or TiniPro insect cells
Test: PI3K alpha kinase assay (Kinase-Glo luminescence)
Assay type: biochemical
Summary of the method: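 IC50 values come from a four-parameter logistic fit of percent inhibition at eight concentrations, typically 10 to 0.003 μM. Recombinant PI3Kα at 10 nM turned over 1 μM ATP with 10 μg/mL PI for 60 min at room temperature, and residual ATP was measured by Kinase-Glo.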

T1 sequence (P42336 with tags, fused parts or gaps limits assumed): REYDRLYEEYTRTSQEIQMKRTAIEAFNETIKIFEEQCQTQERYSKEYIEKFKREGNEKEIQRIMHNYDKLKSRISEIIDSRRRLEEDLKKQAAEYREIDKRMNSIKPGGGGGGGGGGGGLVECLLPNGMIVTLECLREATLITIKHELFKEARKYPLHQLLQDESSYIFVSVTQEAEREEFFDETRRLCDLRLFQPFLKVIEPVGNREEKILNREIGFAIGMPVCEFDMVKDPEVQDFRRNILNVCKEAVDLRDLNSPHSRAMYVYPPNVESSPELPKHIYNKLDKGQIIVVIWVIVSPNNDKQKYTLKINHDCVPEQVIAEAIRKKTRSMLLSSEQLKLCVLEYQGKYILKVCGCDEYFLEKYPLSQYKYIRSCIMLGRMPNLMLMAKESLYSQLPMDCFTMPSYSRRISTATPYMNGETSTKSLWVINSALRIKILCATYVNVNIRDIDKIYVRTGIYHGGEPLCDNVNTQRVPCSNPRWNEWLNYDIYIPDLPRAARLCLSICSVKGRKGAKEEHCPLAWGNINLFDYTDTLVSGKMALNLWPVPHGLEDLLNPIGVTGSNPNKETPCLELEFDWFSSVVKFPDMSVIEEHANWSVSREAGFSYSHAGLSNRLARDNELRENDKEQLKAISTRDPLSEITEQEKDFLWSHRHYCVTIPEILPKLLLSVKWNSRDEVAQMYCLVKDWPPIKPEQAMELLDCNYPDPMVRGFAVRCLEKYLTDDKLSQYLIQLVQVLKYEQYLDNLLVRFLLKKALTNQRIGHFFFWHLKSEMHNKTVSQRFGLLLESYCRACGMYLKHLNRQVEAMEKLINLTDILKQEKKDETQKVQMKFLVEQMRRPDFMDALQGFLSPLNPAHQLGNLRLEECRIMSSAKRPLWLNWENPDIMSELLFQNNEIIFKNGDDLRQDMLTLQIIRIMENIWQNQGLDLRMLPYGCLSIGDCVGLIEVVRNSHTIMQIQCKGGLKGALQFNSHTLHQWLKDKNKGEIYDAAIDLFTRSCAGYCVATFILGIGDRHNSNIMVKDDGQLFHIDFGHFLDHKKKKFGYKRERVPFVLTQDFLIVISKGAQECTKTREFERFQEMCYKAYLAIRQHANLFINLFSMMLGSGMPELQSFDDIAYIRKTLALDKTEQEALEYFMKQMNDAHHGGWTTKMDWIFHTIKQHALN

SMILES	IC50 (read-out: EPK_PI3Kalfa/IC50)	IC50 (read-out: PI3Kalfa/IC50)
COCC(=O)Nc1ccc(-n2c(=O)n(C)c3cnc4ccc(-c5cncc(N)c5)cc4c32)c(C)n1 [Example 20.1, N-{5-[8-(5-Amino-pyridin-3-yl)-3-methyl-2-oxo-2,3-dihydro-imidazo[4,5-c]quinolin-1-yl]-6-methyl-pyridin-2-yl}-2-methoxy-acetamide]	50 nM	
CCNc1cc(-c2ccc3ncc4c(c3c2)n(-c2ccc(F)nc2C)c(=O)n4C)cnc1CO [Example 7.9, 8-(5-Ethylamino-6-hydroxymethyl-pyridin-3-yl)-1-(6-fluoro-2-methyl-pyridin-3-yl)-3-methyl-1,3-dihydro-imidazo[4,5-c]quinolin-2-one]	20 nM	
CCOc1ccc(-c2ccc3ncc4c(c3c2)n(-c2ccc(N(C)C)nc2C)c(=O)n4C)cn1 [Example 19.3, 1-(6-Dimethylamino-2-methyl-pyridin-3-yl)-8-(6-ethoxy-pyridin-3-yl)-3-methyl-1,3-dihydro-imidazo[4,5-c]quinolin-2-one]	55 nM	
Cc1nc(N2CC(F)(F)C2)ccc1-n1c(=O)n(C)c2cnc3ccc(-c4cncc(C(C)(C)O)c4)cc3c21 [Example 24.2, 1-[6-(3,3-Difluoro-azetidin-1-yl)-2-methyl-pyridin-3-yl]-8-[5-(1-hydroxy-1-methyl-ethyl)-pyridin-3-yl]-3-methyl-1,3-dihydro-imidazo[4,5-c]quinolin-2-one]	10 nM	
Cc1nc(N2CCC(O)C2)ccc1-n1c(=O)n(C)c2cnc3ccc(-c4cncc(OC(C)C)c4)cc3c21 (centres unmarked) [Example 27.1, 1-[6-(3-Hydroxy-pyrrolidin-1-yl)-2-methyl-pyridin-3-yl]-8-(5-isopropoxy-pyridin-3-yl)-3-methyl-1,3-dihydro-imidazo[4,5-c]quinolin-2-one]	21 nM	
Cc1cc(F)ncc1-n1c(=O)n(C)c2cnc3ccc(-c4cnc(N)c(C(F)(F)F)c4)cc3c21 [Example 16.1, 8-(6-Amino-5-trifluoromethyl-pyridin-3-yl)-1-(6-fluoro-4-methyl-pyridin-3-yl)-3-methyl-1,3-dihydro-imidazo[4,5-c]quinolin-2-one]	14 nM	
CNc1ccc(-c2ccc3ncc4c(c3c2)n(-c2ccc(OCCOC)nc2C)c(=O)n4C)cn1 [Example 13.3, 1-[6-(2-Methoxy-ethoxy)-2-methyl-pyridin-3-yl]-3-methyl-8-(6-methylamino-pyridin-3-yl)-1,3-dihydro-imidazo[4,5-c]quinolin-2-one]	31 nM	
CNc1cc(-c2ccc3ncc4c(c3c2)n(-c2ccc(N(C)C)nc2C)c(=O)n4C)cnc1C [Example 19.2, 1-(6-Dimethylamino-2-methyl-pyridin-3-yl)-3-methyl-8-(6-methyl-5-methylamino-pyridin-3-yl)-1,3-dihydro-imidazo[4,5-c]quinolin-2-one]	14 nM	
COc1ncccc1-n1c(=O)n(C)c2cnc3ccc(-c4cnc5c(ccn5C)c4)cc3c21 [Example 1.7, 1-(2-Methoxy-pyridin-3-yl)-3-methyl-8-(1-methyl-1H-pyrrolo[2,3-b]pyridin-5-yl)-1,3-dihydro-imidazo[4,5-c]quinolin-2-one]		134 nM
COCCOc1ccc(-n2c(=O)n(C)c3cnc4ccc(-c5cnc(N)c(C(F)(F)F)c5)cc4c32)c(C)n1 [Example 13.2, 8-(6-Amino-5-trifluoromethyl-pyridin-3-yl)-1-[6-(2-methoxy-ethoxy)-2-methyl-pyridin-3-yl]-3-methyl-1,3-dihydro-imidazo[4,5-c]quinolin-2-one]	36 nM	
CNc1ccc(-c2ccc3ncc4c(c3c2)n(-c2ccc(N3CCCC3)nc2C)c(=O)n4C)cn1 [Example 25.1, 3-Methyl-8-(6-methylamino-pyridin-3-yl)-1-(2-methyl-6-pyrrolidin-1-yl-pyridin-3-yl)-1,3-dihydro-imidazo[4,5-c]quinolin-2-one]	35 nM	
COCCOc1ccc(-n2c(=O)n(C)c3cnc4ccc(-c5cnc(COC)c(OC)c5)cc4c32)c(C)n1 [Example 22.3, 1-[6-(2-Methoxy-ethoxy)-2-methyl-pyridin-3-yl]-8-(5-methoxy-6-methoxymethyl-pyridin-3-yl)-3-methyl-1,3-dihydro-imidazo[4,5-c]quinolin-2-one]	164 nM	
CNc1ncc(-c2ccc3ncc4c(c3c2)n(-c2ccc(F)nc2C)c(=O)n4C)cc1F [Example 7.12, 8-(5-Fluoro-6-methylamino-pyridin-3-yl)-1-(6-fluoro-2-methyl-pyridin-3-yl)-3-methyl-1,3-dihydro-imidazo[4,5-c]quinolin-2-one]	44 nM	
COc1nc(N2CCNCC2)ccc1-n1c(=O)n(C)c2cnc3ccc(-c4cnc(N(C)C)nc4)cc3c21 [Example 9.4, 8-(2-Dimethylamino-pyrimidin-5-yl)-1-(2-methoxy-6-piperazin-1-yl-pyridin-3-yl)-3-methyl-1,3-dihydro-imidazo[4,5-c]quinolin-2-one]	15 nM	
CCNc1cc(-c2ccc3ncc4c(c3c2)n(-c2cnc(F)cc2C)c(=O)n4C)cnc1C [Example 16.2, 8-(5-Ethylamino-6-methyl-pyridin-3-yl)-1-(6-fluoro-4-methyl-pyridin-3-yl)-3-methyl-1,3-dihydro-imidazo[4,5-c]quinolin-2-one]	33 nM	
COCCN(C)c1ccc(-n2c(=O)n(C)c3cnc4ccc(-c5cncc(N)c5)cc4c32)c(C)n1 [Example 15.8, 8-(5-Amino-pyridin-3-yl)-1-{6-[(2-methoxy-ethyl)-methyl-amino]-2-methyl-pyridin-3-yl}-3-methyl-1,3-dihydro-imidazo[4,5-c]quinolin-2-one]	49 nM	
COc1ccc(-n2c(=O)n(C)c3cnc4ccc(-c5cnc(CO)c(OC)c5)cc4c32)c(C)n1 [Example 11.8, 8-(6-Hydroxymethyl-5-methoxy-pyridin-3-yl)-1-(6-methoxy-2-methyl-pyridin-3-yl)-3-methyl-1,3-dihydro-imidazo[4,5-c]quinolin-2-one]	16 nM	
CCOc1ccc(-c2ccc3ncc4c(c3c2)n(-c2ccc(OCCOC)nc2C)c(=O)n4C)cn1 [Example 13.1, 8-(6-Ethoxy-pyridin-3-yl)-1-[6-(2-methoxy-ethoxy)-2-methyl-pyridin-3-yl]-3-methyl-1,3-dihydro-imidazo[4,5-c]quinolin-2-one]	158 nM	
CCOc1ccc(-c2ccc3ncc4c(c3c2)n(-c2ccc(C)nc2C)c(=O)n4C)cn1 [Example 14.2, 1-(2,6-Dimethyl-pyridin-3-yl)-8-(6-ethoxy-pyridin-3-yl)-3-methyl-1,3-dihydro-imidazo[4,5-c]quinolin-2-one]	43 nM	
CCOCc1cc(-c2ccc3ncc4c(c3c2)n(-c2ccc(F)nc2C)c(=O)n4C)cnc1N [Example 7.15, 8-(6-Amino-5-ethoxymethyl-pyridin-3-yl)-1-(6-fluoro-2-methyl-pyridin-3-yl)-3-methyl-1,3-dihydro-imidazo[4,5-c]quinolin-2-one]	59 nM	
CCOc1ccc(-c2ccc3ncc4c(c3c2)n(-c2ccc(NC(=O)COC)nc2C)c(=O)n4C)cn1 [Example 20.2, N-{5-[8-(6-Ethoxy-pyridin-3-yl)-3-methyl-2-oxo-2,3-dihydro-imidazo[4,5-c]quinolin-1-yl]-6-methyl-pyridin-2-yl}-2-methoxy-acetamide]	162 nM	
CCNc1cc(-c2ccc3ncc4c(c3c2)n(-c2ccc(C)nc2C)c(=O)n4C)cnc1C [Example 14.6, 1-(2,6-Dimethyl-pyridin-3-yl)-8-(5-ethylamino-6-methyl-pyridin-3-yl)-3-methyl-1,3-dihydro-imidazo[4,5-c]quinolin-2-one]	19 nM	
CNc1ncc(-c2ccc3ncc4c(c3c2)n(-c2cnc(F)cc2C)c(=O)n4C)cn1 [Example 16.3, 1-(6-Fluoro-4-methyl-pyridin-3-yl)-3-methyl-8-(2-methylamino-pyrimidin-5-yl)-1,3-dihydro-imidazo[4,5-c]quinolin-2-one]	71 nM	
CNC(=O)c1cc(-c2ccc3ncc4c(c3c2)n(-c2ccc(F)nc2C)c(=O)n4C)cnc1N [Example 7.14, 2-Amino-5-[1-(6-fluoro-2-methyl-pyridin-3-yl)-3-methyl-2-oxo-2,3-dihydro-1H-imidazo[4,5-c]quinolin-8-yl]-N-methyl-nicotinamide]	11 nM	
COCCN(C)c1ccc(-n2c(=O)n(C)c3cnc4ccc(-c5cnc6c(ccn6C)c5)cc4c32)c(C)n1 [Example 15.7, 1-{6-[(2-Methoxy-ethyl)-methyl-amino]-2-methyl-pyridin-3-yl}-3-methyl-8-(1-methyl-1H-pyrrolo[2,3-b]pyridin-5-yl)-1,3-dihydro-imidazo[4,5-c]quinolin-2-one]	18 nM	
Cc1nc(N2CC(F)(F)C(F)(F)C2)ccc1-n1c(=O)n(C)c2cnc3ccc(-c4cncc(C(C)(C)O)c4)cc3c21 [Example 35.1, 8-[5-(1-Hydroxy-1-methyl-ethyl)-pyridin-3-yl]-3-methyl-1-[2-methyl-6-(3,3,4,4-tetrafluoro-pyrrolidin-1-yl)-pyridin-3-yl]-1,3-dihydro-imidazo[4,5-c]quinolin-2-one]	7 nM	
COc1cc(-c2ccc3ncc4c(c3c2)n(-c2ccc(N(C)C)nc2C)c(=O)n4C)cnc1CO [Example 19.4, 1-(6-Dimethylamino-2-methyl-pyridin-3-yl)-8-(6-hydroxymethyl-5-methoxy-pyridin-3-yl)-3-methyl-1,3-dihydro-imidazo[4,5-c]quinolin-2-one]	9 nM	
CCOc1ccc(-c2ccc3ncc4c(c3c2)n(-c2cncc(C)c2)c(=O)n4C)cn1 [Example 17.1, 8-(6-Ethoxy-pyridin-3-yl)-3-methyl-1-(5-methyl-pyridin-3-yl)-1,3-dihydro-imidazo[4,5-c]quinolin-2-one]	78 nM	
COCCN(C)c1ccc(-n2c(=O)n(C)c3cnc4ccc(-c5cnc(N)c(C(F)(F)F)c5)cc4c32)c(C)n1 [Example 15.1, 8-(6-Amino-5-trifluoromethyl-pyridin-3-yl)-1-{6-[(2-methoxy-ethyl)-methyl-amino]-2-methyl-pyridin-3-yl}-3-methyl-1,3-dihydro-imidazo[4,5-c]quinolin-2-one]	7 nM	
